From BindingDB's records for doi:10.1016/s0960-894x(03)00408-6 (Millennium Pharmaceuticals, 2003) come the findings set out here.

Experiment [1] addresses cAMP-dependent protein kinase catalytic subunit alpha/beta/gamma (Homo sapiens, UniProt P17612+P22694+P22612). In words: Inhibitory activity against protein kinase A.
The next experiment has as its target Protein kinase C (PKC). In words: Inhibitory activity against protein kinase C.

By IC50 is commonly meant the concentration that inhibits the measured activity by half. Lower therefore signals greater potency in that assay.

On to `Clc1cc2c3cc[nH]cc-3nc2c(Cl)c1OCC1CC1` [6,8-Dichloro-7-cyclopropylmethoxy-9H-beta-carboline], for which the IC50 (in experiment [1]; on Protein kinase C (PKC)) was above 25 µM in each case.
Turning to `COc1cccc(C(=O)Nc2cc(Cl)cc3c4cc[nH]cc-4nc23)c1` [N-(6-Chloro-9H-beta-carbolin-8-yl)-3-methoxy-benzamide], the concentration for half-maximal inhibition (IC50) (in experiment [1]; against Protein kinase C (PKC)) was above 25 µM in each case.
For `COc1ccccc1C(=O)Nc1cc(Cl)cc2c3cc[nH]cc-3nc12` [N-(6-Chloro-9H-beta-carbolin-8-yl)-2-methoxy-benzamide], the IC50 (in experiment [1]; against Protein kinase C (PKC)) was above 25 µM throughout.
On to `O=[N+]([O-])c1cc(Cl)cc2c1[nH]c1cnccc12` [6-Chloro-8-nitro-9H-beta-carboline], for which the IC50 (in experiment [1]; against Protein kinase C (PKC)) was above 25 µM in each case.
Turning to `COc1ccc(C(=O)Nc2cc(Cl)cc3c4cc[nH]cc-4nc23)cc1` [N-(6-Chloro-9H-beta-carbolin-8-yl)-4-methoxy-benzamide], the concentration for half-maximal inhibition (IC50) (in experiment [1]; against Protein kinase C (PKC)) was above 25 µM throughout.
